Measured values published in patent US20260027073A1, “USE OF SMALL-MOLECULE COMPOUND HAVING NAPHTHYLAMINE STRUCTURE” (HANGZHOU PHECDAMED CO., LTD., priority 2023, published 2026).
“And” between values parts separate entries of the source, which are not always exact repeats. Equal values may be shown once.

Assays:
[1] = system: rats of type I diabetes nephropathy model; experiment: Kidney injury induced by type 1 diabetic nephropathy (STZ); assay type: in vivo, SD rats
Experimental: 150-170 g SD male rats were fasted but not deprived of water for 12 h before surgery, and a longitudinal incision was made at the intersection of the lower edge of the right rib arch, which was about 1 cm long. Then the three layers of skin, mucous membrane, and muscle were separated layer by layer to expose the perinephric fat, and the perinephric fat was clamped by hemostatic forceps and lifted upward to expose the right kidney, and the right kidney pedicle was ligated and the right kidney was resected, and after no hemorrhage was checked, the tissues were sutured layer by layer. One week after surgery, 1% streptozotocin (STZ) 50 mg/kg was injected intraperitoneally in a volume of […]. Rats in the sham group only had the abdominal cavity opened, the right renal adipose capsule was peeled off, and the right kidney was not resected; the abdominal cavity was closed, the incision was sutured and an equal volume of citrate solution was injected into the tail vein one week later.
Random blood glucose was measured 72 h after STZ injection, and blood glucose ≥16.65 mmol/L was considered as successful diabetes modeling. The successful modeling rats were selected to continue to be fed with normal chow and free water. […] The experiment was divided into sham group (sham group, without STZ modeling and given vehicle by oral gavage), Control group (model control group, STZ modeling and given vehicle treatment by oral gavage), and 15 mg/kg I-1 group (STZ modeling and given 15 mg/kg I-1 by oral gavage), and the dosage of the drug was administered once a day in the volume of 10 ml/kg for 27 days. […] At the end point of the experiment, the rats were euthanized, the kidneys were removed after dissection, and four kidneys were taken to be fixed with 4% paraformaldehyde for 48 h, paraffin-embedded, sectioned and HE stained, and the specific staining procedure was as described above.

[2] = system: chronic epilepsy mouse model; experiment: PTZ chronic epilepsy model; assay type: in vivo, ICR mice; conditions: for seizure grade (Racine grading) / latency in platform jumping (Step-down) experiment / Step-through latency, dark avoidance experiment: 30 mg/kg oral gavage, 21 days; for seizure grade (Racine grading): FIG. 63; for latency in platform jumping (Step-down) experiment: FIG. 64; for Step-through latency, dark avoidance experiment: FIG. 65; for serum IL-1β level / serum TNF-α level: 30 mg/kg, to a certain degree, FIG. 66
Experimental: Clean grade 8-10 week old male ICR mice were selected for the preparation of a chronic epilepsy mouse model. They were randomly divided into four groups: normal control group (Control, 0.5% CMC-Na treatment by oral gavage, n=8), model group (Model, 0.5% CMC-Na treatment by oral gavage, n=8), TJ01-013 treatment group (TJ01-013, 30 mg/kg TJ01-013 by oral gavage, n=8), I-14-1 treatment group (I-14-1, 30 mg/kg I-14-1 by oral gavage, n=8). Starting from the first day of the experiment, at 10-11 am every day, mice in all groups except the normal control group were injected intraperitoneally with PTZ 40 mg/kg and the normal control group was injected with the corresponding volume of saline for a total of 21 days. The drug administration treatment was started right after the start of modeling, and the drug was administered once a day for a total of 21 days, and the corresponding tests were performed at the end of the drug administration.
Epileptic seizure grading standard is based on Racine grading: Grade 0, no convulsive response, manifested as normal behavior state; Grade I, facial muscle spasm, manifested as rhythmic chewing, blinking, moving whiskers, etc.; Grade II, neck muscle spasm, manifested as head nodding with or without tail erecting; Grade III, forelimb lifting, clonic or rhythmic twitching; Grade IV, hindlimb tonic or standing tonic; Grade V, generalized clonic, standing tonic and falling down; loss of balance.
The platform jumping experiment is an experimental method designed to utilize the habit of experimental mice to jump down from a high place immediately to explore the surrounding environment. The experimental mice are placed on a high platform, and at the moment of jumping down, they are given electrical stimulation. Then in order to avoid the electric stimulus, the animals will not jump off the platform, while the mice that are not good at learning and memorizing will maintain their habit and jump off the platform. At the end of each round of the experiment, 75% alcohol were sprayed for wiping to avoid odor interference between the mice. The experiment was conducted after the administration, and the experimental device was a cubic box with a (10 cm×10 cm) electric fence at the bottom and a height of 30 cm, with a platform of 3.2 cm in height and 4.2 cm in diameter inside. The experimental steps and procedures of this experiment were divided into: (1) The mice were put into the bottom of the experimental device, which was not energized at this time, so that they were free to explore and adapt to the environment for 10 s. (2) The mice were placed on the high platform inside the experimental device, and the time at which the mice jumped off the high platform was recorded as Initial latency, and were given electrical stimulation (50 Hz, 20 V, 5 s). (3) After 24 h, the mice were placed on the platform again, and the time at which they jumped off the platform was recorded as Step-down latency. The residence time of the mice on the high platform should not exceed 60 s, and the time exceeding 60 s was still recorded as 60 s.
The step through dark avoidance experiment is an experimental method designed to utilize the tendency of mice to move around in dark environments more than in bright environments. The experimental mice are placed in a bright environment of a bright and dark environment connecting device, and then electrically stimulated when they enter the dark environment. Then in order to avoid the electric stimulus, they will move into the light environment, while mice that are not good at learning and memorizing will maintain their habit and enter the dark environment. At the end of each round of the experiment, 75% alcohol were sprayed for wiping to avoid odor interference between mice. This experiment was conducted at the end of the administration. […]

Compound	body weight ([1]; 15 mg/kg oral gavage, 27 days, FIG. 14)	blood glucose level ([1]; 15 mg/kg, 27 days, FIG. 16)	24-h urine protein level ([1]; 15 mg/kg, 27 days, FIG. 17)	serum creatinine level ([1]; 15 mg/kg, 27 days, P<0.5 [sic], FIG. 15)	degree of renal pathology (HE staining) ([1]; 15 mg/kg, 27 days, vs model group, FIG. 18)	Renal lesion (number of kidneys, n = 4) ([1]; Degree of lesion + (mild lesions), 15 mg/kg)	Renal lesion (number of kidneys, n = 4) ([1]; Degree of lesion ++ (moderate lesions), 15 mg/kg)	Renal lesion (number of kidneys, n = 4) ([1]; Degree of lesion +++ (severe lesions), 15 mg/kg)	Renal lesion (number of kidneys, n = 4) ([1]; Degree of lesion ± (slight lesions), 15 mg/kg)	Renal lesion (number of kidneys, n = 4) ([1]; Degree of lesion − (no lesions), 15 mg/kg)	seizure grade (Racine grading) [2]	latency in platform jumping (Step-down) experiment [2]	Step-through latency, dark avoidance experiment [2]	serum IL-1β level [2]	serum TNF-α level [2]	treatment effect of TJ01-013 compared with I-14-1 ([2]; both 30 mg/kg, per readout of the block)	protection against kidney injury in type 1 diabetes compared with I-1 group ([1]; UMI-77 vs I-1)
O=C(O)C[S+]([O-])c1cc(NS(=O)(=O)c2ccc(Br)cc2)c2ccccc2c1O (stereo not shown) [I-1]	trend of increasing body weight	no significant effect	decrease in the 24-h urine protein level of rats, but there was no significant difference	significantly decreased	significant reduction	3/4 and 3	0	1/4 and 1	0	0	significant difference in reducing seizures	increase the Initial latency to a certain degree	increase the latency to a certain extent	reduce	reduce	significantly better	–
O=C(O)C[S+]([O-])c1cc(NS(=O)(=O)c2ccc(C(F)(F)F)cc2)c2ccccc2c1O (stereo not shown) [I-14-1]	–	–	–	–	–	–	–	–	–	–	reduce the seizure grade	increase the Initial latency to a certain degree	increase the latency to a certain extent	reduce	reduce	–	–
O=C(O)CSc1cc(NS(=O)(=O)c2ccc(Br)cc2)c2ccccc2c1O [UMI-77, reference compound]	–	–	–	–	–	–	–	–	–	–	–	–	–	–	–	–	less protective
